From ChEMBL document CHEMBL4152220, “Discovery of new benzensulfonamide derivatives as tripedal STAT3 inhibitors” (Eur J Med Chem, 2018) come the findings set out here.

Series [1] concerns HCT-116. Briefly: Induction of apoptosis in human HCT116 cells assessed as late apoptotic cells at 4 uM after 20 hrs by Annexin V-APC/7-AAD staining-based flow cytometric analysis (reference value: 0.0%). It counts as functional.
Series [2] has as its system HCT-116. As to the kind of experiment: Induction of apoptosis in human HCT116 cells assessed as increase in cleaved caspase7 level after 20 hrs by Western blot analysis. It is filed as functional, cell-based. (In general: In western blotting, separated proteins are transferred to a membrane and probed.)
The target of series [3] is T1, Signal transducer and activator of transcription 1-alpha/beta (Homo sapiens) (UniProt P42224).
T1 sequence (whole entry): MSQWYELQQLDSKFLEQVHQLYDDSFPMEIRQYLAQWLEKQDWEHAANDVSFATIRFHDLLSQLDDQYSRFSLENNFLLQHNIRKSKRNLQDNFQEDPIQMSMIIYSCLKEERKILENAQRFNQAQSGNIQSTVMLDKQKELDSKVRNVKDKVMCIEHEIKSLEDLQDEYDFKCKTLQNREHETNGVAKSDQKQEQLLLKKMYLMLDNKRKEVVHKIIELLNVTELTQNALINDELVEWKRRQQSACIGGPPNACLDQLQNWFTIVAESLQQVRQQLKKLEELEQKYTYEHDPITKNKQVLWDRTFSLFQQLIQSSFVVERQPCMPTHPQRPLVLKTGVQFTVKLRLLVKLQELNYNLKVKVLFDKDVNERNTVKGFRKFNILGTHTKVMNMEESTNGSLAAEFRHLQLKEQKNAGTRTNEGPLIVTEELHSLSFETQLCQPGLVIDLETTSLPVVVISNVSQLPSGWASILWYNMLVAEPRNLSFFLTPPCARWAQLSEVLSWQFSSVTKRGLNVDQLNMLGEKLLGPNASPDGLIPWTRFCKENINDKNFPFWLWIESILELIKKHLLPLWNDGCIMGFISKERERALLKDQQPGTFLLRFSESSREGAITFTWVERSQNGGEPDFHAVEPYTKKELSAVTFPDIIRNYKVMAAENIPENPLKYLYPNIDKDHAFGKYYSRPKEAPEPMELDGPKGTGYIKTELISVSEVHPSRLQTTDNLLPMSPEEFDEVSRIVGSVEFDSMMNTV
As to the kind of experiment: Inhibition of STAT1 phosphorylation at Y701 residue in human HCT116 cells at 4 to 12 uM after 20 hrs by Western blot analysis. It counts as cell-based.

Series [4] relates to HCT-116. As to the kind of experiment: Effect on total STAT3 level in human HCT116 cells at 4 to 12 uM after 20 hrs by Western blot analysis. It is filed as ADME, cell-based. Conditions: hct-116, 20 h.
Series [5] has as its system HCT-116. Briefly: Induction of apoptosis in human HCT116 cells assessed as late apoptotic cells at 8 uM after 20 hrs by Annexin V-APC/7-AAD staining-based flow cytometric analysis (reference value: 0.0%). It counts as functional. A general note: In flow cytometry, cells or beads pass a laser one at a time.
The target in series [6] is Signal transducer and activator of transcription 3 (Homo sapiens) (UniProt P40763). As to the kind of experiment: Inhibition of STAT3 in human DU145 cells assessed as decrease in Bcl-2 protein level after 20 hrs by Western blot analysis. It is filed as cell-based.
Series [7] concerns HCT-116. Briefly: Induction of apoptosis in human HCT116 cells assessed as late apoptotic cells at 12 uM after 20 hrs by Annexin V-APC/7-AAD staining-based flow cytometric analysis (reference value: 0.0%). It counts as functional.
The subject of series [8] is HCT-116. As to the kind of experiment: Induction of apoptosis in human HCT116 cells assessed as necrotic cells at 12 uM after 20 hrs by Annexin V-APC/7-AAD staining-based flow cytometric analysis (reference value: 0.1%). It is filed as functional.
In series [9] the test system is HCT-116. Briefly: Induction of apoptosis in human HCT116 cells after 20 hrs by Annexin V-APC/7-AAD staining-based flow cytometric analysis. It counts as functional, cell-based.
Series [10] relates to Mus musculus. As to the kind of experiment: In vivo inhibition of STAT3 in nude mouse xenografted with human HCT116 cells assessed as reduction in p-STAT3 (Y705) level at 10 to 20 mg/kg, ip dosed daily for 15 days by Western blot relative to untreated control. It counts as functional, organism-based.
Series [11] relates to HCT-116. Briefly: Antitumor activity against human HCT116 cells xenografted in nude mouse assessed as decrease in tumor weight at 10 mg/kg, ip dosed daily for 15 days relative to untreated control. It is filed as functional. On the set-up: scale not given: the % may be the effect or the level left. For orientation: A xenograft is tissue or cells of one species grown in another, often human tumour cells in immunodeficient mice.

The subject of series [12] is Mus musculus. Briefly: Toxicity in ICR mouse assessed as mortality at 10 to 80 mg/kg, ip measured up to 2 weeks post treatment. It counts as organism-based. Particulars: in vivo, 336 h.
Series [13] deals with T1, Signal transducer and activator of transcription 1-alpha/beta (Homo sapiens). Briefly: Inhibition of STAT1 phosphorylation at Y701 residue in human HCT116 cells at 10 uM after 20 hrs by Western blot analysis. It is filed as cell-based.
The target in series [14] is Signal transducer and activator of transcription 3 (Homo sapiens) (UniProt P40763). As to the kind of experiment: Inhibition of STAT3 in human HCT116 cells assessed as reduction in IL6 induced STAT3 phosphorylation at Y705 residue preincubated for 10 hrs followed by IL6 stimulation and measured after 30 mins by Western blot analysis. It is filed as cell-based.
For series [15] the target is unchanged. As to the kind of experiment: Inhibition of STAT3 phosphorylation at Y705 residue in human HCT116 cells after 20 hrs by Western blot analysis. It counts as cell-based.
Series [16] relates to HCT-116. As to the kind of experiment: Induction of apoptosis in human HCT116 cells assessed as increase in cleaved caspase9 level after 20 hrs by Western blot analysis. It counts as functional, cell-based.
In series [17] the test system is HCT-116. As to the kind of experiment: Induction of apoptosis in human HCT116 cells assessed as necrotic cells at 4 uM after 20 hrs by Annexin V-APC/7-AAD staining-based flow cytometric analysis (reference value: 0.1%). It is filed as functional.
Series [18] deals with HCT-116. As to the kind of experiment: Induction of ROS generation in human HCT116 cells at 4 to 12 uM after 20 hrs by DCFH-DA staining-based flow cytometric analysis. It counts as functional, cell-based.
Series [19] has as its target Mitogen-activated protein kinase; ERK1/ERK2 (Homo sapiens) (UniProt P27361+P28482). As to the kind of experiment: Inhibition of ERK1/2 phosphorylation in human HCT116 cells at 4 to 12 uM after 20 hrs by Western blot analysis. It counts as cell-based.
For series [20], the target named is Proto-oncogene tyrosine-protein kinase Src (Homo sapiens) (UniProt P12931). Briefly: Inhibition of Src phosphorylation in human HCT116 cells at 4 to 12 uM after 20 hrs by Western blot analysis. It counts as cell-based.
Series [21] concerns HCT-116. Briefly: Induction of apoptosis in human HCT116 cells assessed as viable cells at 4 uM after 20 hrs by Annexin V-APC/7-AAD staining-based flow cytometric analysis (reference value: 96.8%). It is filed as functional. Particulars: HCT-116, 20 h, read-out: Activity.
Series [22] has as its target Signal transducer and activator of transcription 3 (Homo sapiens) (UniProt P40763). Briefly: Inhibition of STAT3 in human HCT116 cells assessed as decrease in cyclin D1 protein expression level after 20 hrs by Western blot analysis. It counts as cell-based.

Active and inactive are the calls of the source. No cut-off for these calls is given here.

Chain of Signal transducer and activator of transcription 3 (Homo sapiens) (P40763 whole entry): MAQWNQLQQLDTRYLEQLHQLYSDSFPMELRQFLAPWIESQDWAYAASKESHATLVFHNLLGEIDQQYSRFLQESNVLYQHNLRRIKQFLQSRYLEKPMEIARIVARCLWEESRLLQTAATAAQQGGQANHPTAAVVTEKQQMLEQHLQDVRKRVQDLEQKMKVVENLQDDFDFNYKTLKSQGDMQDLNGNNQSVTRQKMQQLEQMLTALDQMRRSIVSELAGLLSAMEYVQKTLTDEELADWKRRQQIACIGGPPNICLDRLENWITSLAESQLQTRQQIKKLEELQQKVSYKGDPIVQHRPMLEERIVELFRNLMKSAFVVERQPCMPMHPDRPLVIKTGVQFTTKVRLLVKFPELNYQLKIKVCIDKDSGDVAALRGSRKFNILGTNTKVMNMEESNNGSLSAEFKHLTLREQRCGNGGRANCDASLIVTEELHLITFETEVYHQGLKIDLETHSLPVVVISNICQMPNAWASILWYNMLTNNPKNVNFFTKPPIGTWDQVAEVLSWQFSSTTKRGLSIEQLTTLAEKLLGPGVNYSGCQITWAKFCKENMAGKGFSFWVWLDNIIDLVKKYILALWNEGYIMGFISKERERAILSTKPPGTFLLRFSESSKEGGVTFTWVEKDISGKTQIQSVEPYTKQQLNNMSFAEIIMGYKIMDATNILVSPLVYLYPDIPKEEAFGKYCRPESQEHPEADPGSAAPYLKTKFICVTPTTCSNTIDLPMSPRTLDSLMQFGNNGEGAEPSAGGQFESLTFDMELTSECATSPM
Chain of Mitogen-activated protein kinase; ERK1/ERK2 (Homo sapiens) (P27361 whole entry, looked up): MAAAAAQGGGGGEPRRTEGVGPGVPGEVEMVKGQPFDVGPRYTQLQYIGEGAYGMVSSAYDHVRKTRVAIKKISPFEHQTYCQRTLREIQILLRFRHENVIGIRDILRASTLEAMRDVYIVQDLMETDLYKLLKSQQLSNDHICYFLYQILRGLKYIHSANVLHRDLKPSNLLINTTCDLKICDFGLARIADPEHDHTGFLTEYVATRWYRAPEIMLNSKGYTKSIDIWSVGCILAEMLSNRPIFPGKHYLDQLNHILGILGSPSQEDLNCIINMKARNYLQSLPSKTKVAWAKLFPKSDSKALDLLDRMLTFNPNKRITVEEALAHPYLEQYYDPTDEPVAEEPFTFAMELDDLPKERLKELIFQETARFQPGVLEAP
Chain of Mitogen-activated protein kinase; ERK1/ERK2 (Homo sapiens) (P28482 whole entry, looked up): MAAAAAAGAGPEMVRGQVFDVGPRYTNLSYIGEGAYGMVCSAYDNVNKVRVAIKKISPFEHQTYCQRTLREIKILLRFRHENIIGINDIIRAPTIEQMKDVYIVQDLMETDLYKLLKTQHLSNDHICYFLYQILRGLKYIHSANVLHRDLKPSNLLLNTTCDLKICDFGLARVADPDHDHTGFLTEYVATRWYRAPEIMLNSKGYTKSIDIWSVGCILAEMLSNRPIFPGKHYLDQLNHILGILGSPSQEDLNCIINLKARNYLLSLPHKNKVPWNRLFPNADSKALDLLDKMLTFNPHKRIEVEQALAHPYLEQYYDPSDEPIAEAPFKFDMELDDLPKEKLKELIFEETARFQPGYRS
Chain of Proto-oncogene tyrosine-protein kinase Src (Homo sapiens) (P12931 2-536 limits assumed): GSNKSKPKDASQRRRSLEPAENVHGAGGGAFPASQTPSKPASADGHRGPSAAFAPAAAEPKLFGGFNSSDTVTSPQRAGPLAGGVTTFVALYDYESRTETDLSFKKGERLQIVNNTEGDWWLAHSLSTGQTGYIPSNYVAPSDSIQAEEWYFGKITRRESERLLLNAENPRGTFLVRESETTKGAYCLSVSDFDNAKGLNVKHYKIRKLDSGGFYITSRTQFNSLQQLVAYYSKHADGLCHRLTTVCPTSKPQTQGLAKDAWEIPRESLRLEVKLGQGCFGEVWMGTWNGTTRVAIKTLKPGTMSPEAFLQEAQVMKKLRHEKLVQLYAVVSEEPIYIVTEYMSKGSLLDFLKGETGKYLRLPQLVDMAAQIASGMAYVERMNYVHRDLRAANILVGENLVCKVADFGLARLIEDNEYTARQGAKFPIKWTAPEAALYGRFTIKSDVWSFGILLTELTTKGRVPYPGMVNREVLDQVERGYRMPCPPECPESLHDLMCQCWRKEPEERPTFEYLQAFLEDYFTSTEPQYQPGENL

Take `CC(C)c1ccc(CN(Cc2c(F)c(F)c(F)c(F)c2F)c2cccc(S(N)(=O)=O)c2)cc1`: the Activity is 0% in the series on HCT-116 [1]; “Dose-dependent effect” with HCT-116 [2]; “Not Active” in the series with HCT-116 [4]; 0.2% with HCT-116 [5]; 0.6% with HCT-116 [7]; 0.5% in the series on HCT-116 [8]. The Activity result is “Dose-dependent effect” in the series on HCT-116 [9]; 41.3% with HCT-116 [11]; “Non-Toxic” in the series on Mus musculus [12]; “Dose-dependent effect” in the series with HCT-116 [16]; 0.1% in the series with HCT-116 [17]. Further, the inhibition entry in [3], in [13], in series [19] and in [20] was “inactive” throughout. Besides, the inhibition entry in series [6], in series [14], in series [15] and in [22] was “Dose-dependent effect” each time. In addition, the inhibition result in the series on Mus musculus [10] was “Active”. For the same compound, in the series on HCT-116 [18], the outcome was Active. The viability at 4 µM with HCT-116 [21] was determined as 92.8%.
